Tests used:
[1] = target: Platelet-derived growth factor receptor beta (Homo sapiens) (UniProt P09619); conditions: Compound concentration 1000.0 nM
[2] = target: Mast/stem cell growth factor receptor Kit (Homo sapiens) (UniProt P10721); conditions: Compound concentration 1000.0 nM
[3] = target: Transient receptor potential cation channel subfamily M member 6 (Homo sapiens) (UniProt Q9BX84); conditions: Compound concentration 1000.0 nM
[4] = target: RAC-beta serine/threonine-protein kinase (Homo sapiens) (UniProt P31751); conditions: Compound concentration 1000.0 nM
[5] = target: Dual specificity protein kinase CLK4 (Homo sapiens) (UniProt Q9HAZ1); conditions: Compound concentration 1000.0 nM
[6] = target: Cyclin-dependent kinase 14 (Homo sapiens) (UniProt O94921); conditions: Compound concentration 1000.0 nM
Chain of Cyclin-dependent kinase 14 (Homo sapiens) (O94921 whole entry): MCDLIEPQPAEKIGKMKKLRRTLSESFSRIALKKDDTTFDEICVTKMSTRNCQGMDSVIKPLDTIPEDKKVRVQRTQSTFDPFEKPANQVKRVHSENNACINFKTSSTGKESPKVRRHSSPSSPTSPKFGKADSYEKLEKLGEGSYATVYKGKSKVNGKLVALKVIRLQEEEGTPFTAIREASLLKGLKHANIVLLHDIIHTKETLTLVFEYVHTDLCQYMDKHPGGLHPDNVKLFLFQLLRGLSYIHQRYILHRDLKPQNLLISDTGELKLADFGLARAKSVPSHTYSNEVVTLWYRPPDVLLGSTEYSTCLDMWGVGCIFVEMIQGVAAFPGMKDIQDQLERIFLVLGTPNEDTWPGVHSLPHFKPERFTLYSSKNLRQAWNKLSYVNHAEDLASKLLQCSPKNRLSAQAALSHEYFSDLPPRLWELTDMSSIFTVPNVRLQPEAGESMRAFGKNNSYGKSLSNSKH

[7] = test system: Receptor-type tyrosine-protein kinase FLT3 (Homo sapiens), P36888 [UNDEFINED MUTATION]; conditions: Compound concentration 1000.0 nM
[8] = target: GABA-A receptor; anion channel (Rattus norvegicus) (UniProt O09028+P15431+P18506+P18508+P19969+P20236+P23574+P23576+P28471+P28473+P30191+P62813+P63079+P63138+Q91ZM7+Q9ES14); experiment: Cl- channel (GABA-gated) Eurofins-Cerep binding assay; type: protein-complex assay; parameters: ligand concentration 3 nM; conditions: filed as antagonist, Compound concentration 10.0 uM
[9] = target: Serine/threonine-protein kinase ULK1 (Homo sapiens) (UniProt O75385); conditions: Compound concentration 1000.0 nM
[10] = target: Endothelin-1 receptor (Homo sapiens) (UniProt P25101); conditions: filed as agonist, Compound concentration 10.0 uM
Chain of Endothelin-1 receptor (Homo sapiens) (P25101 whole entry): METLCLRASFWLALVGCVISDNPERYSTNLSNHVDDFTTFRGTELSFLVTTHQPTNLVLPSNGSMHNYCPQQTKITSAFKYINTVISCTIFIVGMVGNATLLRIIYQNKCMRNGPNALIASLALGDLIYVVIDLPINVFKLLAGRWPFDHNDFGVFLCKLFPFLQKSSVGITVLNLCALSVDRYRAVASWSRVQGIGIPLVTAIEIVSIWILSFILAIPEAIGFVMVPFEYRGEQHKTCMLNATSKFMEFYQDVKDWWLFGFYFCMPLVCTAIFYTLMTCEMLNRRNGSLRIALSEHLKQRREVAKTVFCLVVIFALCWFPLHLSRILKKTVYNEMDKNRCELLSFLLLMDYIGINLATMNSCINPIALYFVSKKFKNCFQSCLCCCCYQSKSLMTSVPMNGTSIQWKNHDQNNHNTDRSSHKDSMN

[11] = target: Ribosomal protein S6 kinase alpha-2 (Homo sapiens) (UniProt Q15349); conditions: Compound concentration 1000.0 nM
[12] = target: Cannabinoid receptor 1 (Homo sapiens) (UniProt P21554); experiment: CB1 (h) Eurofins-Cerep binding assay; parameters: ligand concentration 0.5 nM; conditions: filed as agonist, Compound concentration 10.0 uM
[13] = target: Epithelial discoidin domain-containing receptor 1 (Homo sapiens) (UniProt Q08345); conditions: Compound concentration 1000.0 nM
Chain of Epithelial discoidin domain-containing receptor 1 (Homo sapiens) (Q08345 whole entry, the tested form may be a part): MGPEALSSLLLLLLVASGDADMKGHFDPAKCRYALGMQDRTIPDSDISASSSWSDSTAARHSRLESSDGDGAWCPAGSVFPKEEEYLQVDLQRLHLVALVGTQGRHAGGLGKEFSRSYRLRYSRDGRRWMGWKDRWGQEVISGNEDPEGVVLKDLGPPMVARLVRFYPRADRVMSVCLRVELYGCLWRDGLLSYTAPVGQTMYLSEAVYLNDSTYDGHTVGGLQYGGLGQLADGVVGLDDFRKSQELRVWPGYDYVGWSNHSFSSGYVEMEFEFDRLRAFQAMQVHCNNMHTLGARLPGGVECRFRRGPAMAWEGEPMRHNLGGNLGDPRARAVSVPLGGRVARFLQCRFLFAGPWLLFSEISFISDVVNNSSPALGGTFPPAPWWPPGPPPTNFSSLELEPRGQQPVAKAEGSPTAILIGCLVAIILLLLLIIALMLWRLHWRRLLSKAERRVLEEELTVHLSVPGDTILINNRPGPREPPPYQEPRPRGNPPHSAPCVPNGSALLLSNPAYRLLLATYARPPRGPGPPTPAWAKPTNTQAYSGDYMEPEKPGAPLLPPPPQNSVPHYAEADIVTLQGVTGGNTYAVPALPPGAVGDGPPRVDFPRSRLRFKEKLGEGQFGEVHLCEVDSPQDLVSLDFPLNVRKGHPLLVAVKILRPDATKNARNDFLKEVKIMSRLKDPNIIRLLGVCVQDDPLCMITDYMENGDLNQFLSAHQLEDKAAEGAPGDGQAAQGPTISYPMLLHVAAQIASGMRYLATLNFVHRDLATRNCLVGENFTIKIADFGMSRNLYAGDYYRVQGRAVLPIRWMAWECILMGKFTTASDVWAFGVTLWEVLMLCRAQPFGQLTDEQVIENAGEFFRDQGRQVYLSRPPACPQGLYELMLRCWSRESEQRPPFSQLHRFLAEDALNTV

[14] = target: Serine/threonine-protein kinase Nek7 (Homo sapiens) (UniProt Q8TDX7); conditions: Compound concentration 1000.0 nM
[15] = target: T1, Muscarinic acetylcholine receptor M5 (Homo sapiens) (UniProt P08912); experiment: M5 (h) Eurofins-Cerep binding assay; parameters: ligand concentration 0.3 nM; conditions: filed as antagonist, Compound concentration 10.0 uM
T1 sequence (whole entry): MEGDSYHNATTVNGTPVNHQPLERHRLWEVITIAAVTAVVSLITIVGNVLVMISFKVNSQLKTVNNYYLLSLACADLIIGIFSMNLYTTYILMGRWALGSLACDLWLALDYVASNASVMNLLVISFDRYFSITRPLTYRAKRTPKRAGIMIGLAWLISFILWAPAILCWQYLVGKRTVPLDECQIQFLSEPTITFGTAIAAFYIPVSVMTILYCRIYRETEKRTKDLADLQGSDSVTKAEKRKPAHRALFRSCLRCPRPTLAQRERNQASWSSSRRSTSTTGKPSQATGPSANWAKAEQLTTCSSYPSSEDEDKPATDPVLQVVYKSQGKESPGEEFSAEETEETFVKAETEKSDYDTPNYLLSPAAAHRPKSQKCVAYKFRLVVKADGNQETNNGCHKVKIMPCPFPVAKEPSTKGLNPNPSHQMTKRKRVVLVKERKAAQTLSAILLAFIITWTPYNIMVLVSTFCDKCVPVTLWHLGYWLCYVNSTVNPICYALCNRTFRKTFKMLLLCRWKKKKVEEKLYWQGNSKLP

[16] = target: Prostaglandin E2 receptor EP2 subtype (Homo sapiens) (UniProt P43116); experiment: EP2 (h) Eurofins-Cerep binding assay; parameters: ligand concentration 3 nM; conditions: filed as agonist, Compound concentration 10.0 uM
[17] = test system: Tyrosine-protein kinase ABL1 (Homo sapiens), P00519 [E255K]; conditions: Compound concentration 1000.0 nM
[18] = target: Tyrosine-protein kinase BTK (Homo sapiens) (UniProt Q06187); conditions: Compound concentration 1000.0 nM
[19] = target: Wee1-like protein kinase (Homo sapiens) (UniProt P30291); conditions: Compound concentration 1000.0 nM
Chain of Wee1-like protein kinase (Homo sapiens) (P30291 whole entry, looked up): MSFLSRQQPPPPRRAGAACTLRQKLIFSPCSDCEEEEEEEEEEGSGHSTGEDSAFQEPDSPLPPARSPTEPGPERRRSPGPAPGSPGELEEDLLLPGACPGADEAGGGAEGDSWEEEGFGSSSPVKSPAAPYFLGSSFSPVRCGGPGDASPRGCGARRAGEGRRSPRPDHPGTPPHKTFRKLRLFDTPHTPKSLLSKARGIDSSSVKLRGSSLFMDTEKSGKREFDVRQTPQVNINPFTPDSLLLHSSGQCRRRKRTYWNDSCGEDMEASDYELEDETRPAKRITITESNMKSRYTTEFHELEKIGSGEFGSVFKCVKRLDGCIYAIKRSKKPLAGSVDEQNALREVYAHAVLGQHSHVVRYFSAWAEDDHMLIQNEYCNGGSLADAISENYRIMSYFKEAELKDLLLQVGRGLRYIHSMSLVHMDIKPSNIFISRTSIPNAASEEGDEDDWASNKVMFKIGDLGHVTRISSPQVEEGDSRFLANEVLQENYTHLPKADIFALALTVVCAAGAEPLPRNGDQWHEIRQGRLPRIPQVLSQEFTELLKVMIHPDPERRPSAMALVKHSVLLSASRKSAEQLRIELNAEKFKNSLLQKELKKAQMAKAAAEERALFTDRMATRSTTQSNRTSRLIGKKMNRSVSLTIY

[20] = target: Cyclin-dependent kinase 5 (Homo sapiens) (UniProt Q00535); conditions: Compound concentration 1000.0 nM
[21] = target: Death-associated protein kinase 3 (Homo sapiens) (UniProt O43293); conditions: Compound concentration 1000.0 nM
[22] = target: Phosphatidylinositol 4-phosphate 5-kinase type-1 alpha (Homo sapiens) (UniProt Q99755); conditions: Compound concentration 1000.0 nM
[23] = target: Serine/threonine-protein kinase SIK1 (Homo sapiens) (UniProt P57059); conditions: Compound concentration 1000.0 nM
Chain of Serine/threonine-protein kinase SIK1 (Homo sapiens) (P57059 whole entry): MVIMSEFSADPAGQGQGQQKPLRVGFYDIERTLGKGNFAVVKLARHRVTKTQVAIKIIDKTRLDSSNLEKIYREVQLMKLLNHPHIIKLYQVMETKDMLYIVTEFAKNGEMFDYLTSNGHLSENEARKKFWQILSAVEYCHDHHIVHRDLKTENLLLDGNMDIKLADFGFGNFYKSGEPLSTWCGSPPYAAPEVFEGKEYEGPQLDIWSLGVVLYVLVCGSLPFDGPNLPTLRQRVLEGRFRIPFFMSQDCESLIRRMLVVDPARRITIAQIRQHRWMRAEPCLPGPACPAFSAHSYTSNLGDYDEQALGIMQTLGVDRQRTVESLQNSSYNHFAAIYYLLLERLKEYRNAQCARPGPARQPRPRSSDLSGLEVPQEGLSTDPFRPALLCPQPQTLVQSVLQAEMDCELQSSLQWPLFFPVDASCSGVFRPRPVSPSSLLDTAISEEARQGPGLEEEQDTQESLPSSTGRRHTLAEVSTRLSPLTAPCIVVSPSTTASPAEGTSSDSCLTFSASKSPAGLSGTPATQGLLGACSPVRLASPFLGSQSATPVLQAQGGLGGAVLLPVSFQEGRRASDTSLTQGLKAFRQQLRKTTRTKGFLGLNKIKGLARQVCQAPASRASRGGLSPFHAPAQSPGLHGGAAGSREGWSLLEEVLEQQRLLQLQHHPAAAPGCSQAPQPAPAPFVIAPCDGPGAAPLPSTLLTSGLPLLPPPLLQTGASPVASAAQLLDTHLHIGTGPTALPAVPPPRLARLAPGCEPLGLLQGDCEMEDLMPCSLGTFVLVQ

[24] = target: Serine/threonine-protein kinase MAK (Homo sapiens) (UniProt P20794); conditions: Compound concentration 1000.0 nM
[25] = target: Serine/threonine-protein kinase 25 (Homo sapiens) (UniProt O00506); conditions: Compound concentration 1000.0 nM
[26] = target: Prostaglandin G/H synthase 2 (Homo sapiens) (UniProt P35354); experiment: COX2(h) Eurofins-Cerep enzyme and uptake assay; conditions: Compound concentration 10.0 uM
[27] = target: Interleukin-1 receptor-associated kinase 1 (Homo sapiens) (UniProt P51617); conditions: Compound concentration 1000.0 nM
Chain of Interleukin-1 receptor-associated kinase 1 (Homo sapiens) (P51617 whole entry, looked up): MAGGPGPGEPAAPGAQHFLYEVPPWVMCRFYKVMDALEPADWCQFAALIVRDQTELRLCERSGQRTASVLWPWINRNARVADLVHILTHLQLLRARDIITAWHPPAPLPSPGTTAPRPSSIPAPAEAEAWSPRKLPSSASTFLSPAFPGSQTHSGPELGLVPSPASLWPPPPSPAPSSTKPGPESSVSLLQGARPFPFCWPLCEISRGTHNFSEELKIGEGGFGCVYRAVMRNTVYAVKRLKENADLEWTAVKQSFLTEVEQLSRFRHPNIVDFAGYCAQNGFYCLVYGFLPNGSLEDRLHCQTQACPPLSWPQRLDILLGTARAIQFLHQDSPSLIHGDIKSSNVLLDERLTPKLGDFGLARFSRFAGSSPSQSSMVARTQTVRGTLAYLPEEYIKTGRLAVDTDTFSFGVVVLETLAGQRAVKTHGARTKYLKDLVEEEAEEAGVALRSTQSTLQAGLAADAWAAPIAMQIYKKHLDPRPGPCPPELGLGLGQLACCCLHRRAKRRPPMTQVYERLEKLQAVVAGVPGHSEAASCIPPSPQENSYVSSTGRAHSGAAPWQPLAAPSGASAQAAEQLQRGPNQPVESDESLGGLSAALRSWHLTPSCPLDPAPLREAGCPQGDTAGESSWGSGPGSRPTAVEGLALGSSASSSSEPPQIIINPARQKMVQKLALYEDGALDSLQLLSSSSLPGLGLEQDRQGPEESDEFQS

[28] = target: T2, Alpha-1B adrenergic receptor (Homo sapiens) (UniProt P35368); experiment: Alpha1B (h) Eurofins-Cerep binding assay; conditions: filed as antagonist, Compound concentration 10.0 uM
T2 sequence (whole entry): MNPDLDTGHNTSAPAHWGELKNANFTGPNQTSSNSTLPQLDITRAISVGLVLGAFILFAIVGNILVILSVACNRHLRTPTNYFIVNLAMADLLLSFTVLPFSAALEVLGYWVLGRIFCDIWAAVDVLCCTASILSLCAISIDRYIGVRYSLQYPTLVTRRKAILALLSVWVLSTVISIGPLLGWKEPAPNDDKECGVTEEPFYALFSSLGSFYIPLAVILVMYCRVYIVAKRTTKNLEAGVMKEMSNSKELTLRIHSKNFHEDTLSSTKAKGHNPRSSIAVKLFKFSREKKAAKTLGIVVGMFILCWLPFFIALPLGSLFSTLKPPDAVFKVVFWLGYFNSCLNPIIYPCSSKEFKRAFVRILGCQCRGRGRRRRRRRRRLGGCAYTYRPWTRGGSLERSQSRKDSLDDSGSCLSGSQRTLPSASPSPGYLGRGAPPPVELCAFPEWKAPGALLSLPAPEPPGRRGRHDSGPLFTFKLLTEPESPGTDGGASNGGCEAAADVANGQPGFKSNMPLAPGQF

[29] = target: Mitogen-activated protein kinase kinase kinase 1 (Homo sapiens) (UniProt Q13233); conditions: Compound concentration 1000.0 nM

Chain of Mast/stem cell growth factor receptor Kit (Homo sapiens) (P10721 whole entry): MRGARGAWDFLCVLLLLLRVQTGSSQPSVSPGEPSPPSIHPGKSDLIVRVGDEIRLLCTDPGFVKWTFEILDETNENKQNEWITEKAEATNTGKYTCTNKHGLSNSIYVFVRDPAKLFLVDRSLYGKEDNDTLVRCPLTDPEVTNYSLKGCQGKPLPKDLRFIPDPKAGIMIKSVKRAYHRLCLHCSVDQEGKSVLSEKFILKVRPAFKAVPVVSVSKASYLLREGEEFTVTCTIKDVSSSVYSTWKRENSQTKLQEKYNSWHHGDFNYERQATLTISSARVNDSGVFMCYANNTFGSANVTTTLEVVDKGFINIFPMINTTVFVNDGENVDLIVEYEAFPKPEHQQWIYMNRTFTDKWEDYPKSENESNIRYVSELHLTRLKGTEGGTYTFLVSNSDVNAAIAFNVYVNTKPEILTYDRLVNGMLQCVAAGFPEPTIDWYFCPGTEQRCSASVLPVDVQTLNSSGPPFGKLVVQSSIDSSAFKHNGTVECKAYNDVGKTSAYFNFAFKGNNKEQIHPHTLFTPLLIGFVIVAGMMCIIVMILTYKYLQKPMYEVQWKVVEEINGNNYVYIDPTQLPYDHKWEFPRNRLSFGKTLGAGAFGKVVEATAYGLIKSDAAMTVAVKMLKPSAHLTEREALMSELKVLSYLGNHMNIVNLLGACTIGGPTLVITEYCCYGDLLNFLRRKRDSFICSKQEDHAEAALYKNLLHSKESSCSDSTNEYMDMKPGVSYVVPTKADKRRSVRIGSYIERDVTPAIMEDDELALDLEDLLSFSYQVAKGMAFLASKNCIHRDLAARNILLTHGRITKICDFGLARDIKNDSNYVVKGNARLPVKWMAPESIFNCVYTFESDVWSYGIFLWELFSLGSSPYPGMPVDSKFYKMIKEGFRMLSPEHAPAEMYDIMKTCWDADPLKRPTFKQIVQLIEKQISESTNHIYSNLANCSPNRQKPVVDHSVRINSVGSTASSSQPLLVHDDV

| SMILES | residual activity [1] [%] | residual activity [2] [%] | residual activity [3] [%] | residual activity [4] [%] | residual activity [5] [%] | residual activity [6] [%] | residual activity [7] [%] | % Inhibition of Control Specific Binding (Mean n=2) [8] [%] | residual activity [9] [%] | % Inhibition of Control Specific Binding (Mean n=2) [10] [%] | residual activity [11] [%] | % Inhibition of Control Specific Binding (Mean n=2) [12] [%] | residual activity [13] [%] | residual activity [14] [%] | % Inhibition of Control Specific Binding (Mean n=2) [15] [%] | % Inhibition of Control Specific Binding (Mean n=2) [16] [%] | residual activity [17] [%] | residual activity [18] [%] | residual activity [19] [%] | residual activity [20] [%] | also measured |
| --- | --- | --- | --- | --- | --- | --- | --- | --- | --- | --- | --- | --- | --- | --- | --- | --- | --- | --- | --- | --- | --- |
| CCCOc1ccc([C@H]2[C@H](C(=O)O)[C@@H](c3ccc4c(c3)OCO4)CN2CC(=O)Nc2c(CC)cccc2CC)cc1 [A-192621] | 100 | 92 | 94 | 100 | 100 | 100 | 13 | 77.4 | 68 | 97.1 | 82 | 15.4 | 100 | 96 | 10 | 10.1 | 70 | 55 | 93 | 100 | residual activity [21]: 89%; residual activity [22]: 82%; residual activity [23]: 100%; residual activity [24]: 97%; residual activity [25]: 100%; % Inhibition of Control Values (Mean n=2) [26]: 44%; residual activity [27]: 67%; % Inhibition of Control Specific Binding (Mean n=2) [28]: 3.2%; residual activity [29]: 71% |
| CCCOc1ccc([C@@H]2[C@@H](C(=O)O)[C@H](c3ccc4c(c3)OCO4)CN2CC(=O)Nc2c(CC)cccc2CC)cc1 [A-1806262] | 100 | 82 | 77 | 100 | 89 | 92 | 63 | 60.8 | 77 | 63.7 | 81 | -1.6 | 89 | 100 | 0.9 | 10.7 | 82 | 72 | 95 | 100 | residual activity [21]: 79%; residual activity [22]: 90%; residual activity [23]: 100%; residual activity [24]: 93%; residual activity [25]: 100%; % Inhibition of Control Values (Mean n=2) [26]: 34%; residual activity [27]: 96%; % Inhibition of Control Specific Binding (Mean n=2) [28]: 3.1%; residual activity [29]: 80% |

— ChEMBL document CHEMBL4507261, “Data for DCP probe A-192621” (2021)
